This note sets out measurements from patent US10626103B2, “Inhibitor of lysine specific demethylase-1” (CELGENE QUANTICEL RESEARCH, INC., priority 2014, dated 2020).

What is called IC50 is the concentration that gives 50% inhibition. Low values mean greater potency in that assay, high ones weaker potency in that assay.

In assay [1] the test system is CD11b expression in THP-1 (AML) cells. The experiment in a line: LSD1 CD11b cellular assay (flow cytometry). It is filed as cell-based. The conditions noted are these: Homo sapiens, 96 h, THP-1 cells, 4 days. How it is done:
To analyze LSD1 inhibitor efficacy in cells, a CDL11b flow cytometry assay was performed. LSD1 inhibition induces CD11b expression in THP-1 (AML) cells which can be measured by flow cytometry. […] LSD 1 test compounds were serially diluted in DMSO. The dilutions were added to each well accordingly to a final concentration of 0.2% DMSO. The cells were incubated at 37 degrees Celsius in 5% CO2 for 4 days. 250 μL of each well was transferred to a well in a 96 well round bottom plate. The plate was centrifuged at 1200 rpm at 4 degrees Celsius in a Beckman Coulter Alegra 6KR centrifuge for 5 minutes. The media was removed leaving the cells at the bottom of the wells. The cells were washed in 100 μL cold HBSS (Hank's Balanced Salt Solution) plus 2% BSA (Bovine Serum Albumin) solution and centrifuged at 1200 rpm at 4 degrees Celsius for 5 minutes. The wash was removed. […] The cells were centrifuged and washed two times in 100 μl HBSS plus 2% BSA. After the final spin the cells were resuspended in 100 μL HBSS plus 2% BSA containing 1 ug/mL DAPI (4′,6-diamidino-2-phenylindole). The cells were then analyzed by flow cytometry in a BD FACSAria machine. Cells were analyzed for CD11b expression. The percent of CD11b expressing cells for each inhibitor concentration was used to determine an IC50 curve for each compound analyzed.
A general note: A flow cytometer gives signals particle by particle.

Assay [2] deals with full-length human LSD1 (Homo sapiens (Human), UniProt O60341). The experiment in a line: In vitro enzyme inhibition assay LSD-1 (TR-FRET). It is filed as biochemical. The conditions noted are these: H3K4me1-biotin peptide. How it is done: This assay determines the ability of a test compound to inhibit LSD1 demethylase activity.
The enzymatic assay of LSD1 activity is based on Time Resolved-Fluorescence Resonance Energy Transfer (TR-FRET) detection.
Plates were read by EnVision Multilabel Reader in TR-FRET mode (excitation at 320 nm, emission at 615 nm and 665 nm) after 1 hour incubation at room temperature.
The ability of the compounds disclosed herein to inhibit LSD1 activity was quantified and the respective IC50 value was determined.
(In general: Time-resolved FRET reads energy transfer from a long-lived donor to a nearby acceptor.)

For the compound `COc1ccc(-n2cc(C(=O)N3CCC[C@@H](N)C3)nc2-c2ccc(C#N)c(F)c2)cc1F` [Example 19, 4-[4-[(3R)-3-aminopiperidine-1-carbonyl]-1-(3-fluoro-4-methoxyphenyl)imidazol-2-yl]-2-fluorobenzonitrile], the IC50 in assay [1] and in assay [2] was under 100 nM throughout.
With `COc1ccc(-n2cc(C(=O)N3CC[C@H](N)C3)nc2-c2ccc(C#N)c(F)c2)cc1F` [Example 20, 4-[4-[(3S)-3-aminopyrrolidine-1-carbonyl]-1-(3-fluoro-4-methoxyphenyl)imidazol-2-yl]-2-fluorobenzonitrile], the IC50 in assay [1] and in assay [2] was under 100 nM each time.
Turning to `Cc1c(C(=O)N2CC[C@H](N)C2)nc(-c2ccc(C#N)c(F)c2)n1-c1ccc2c(cnn2C)c1` [Example 24, 4-[4-[(3S)-3-aminopyrrolidine-1-carbonyl]-5-methyl-1-(1-methylindazol-5-yl)imidazol-2-yl]-2-fluorobenzonitrile], the IC50 in assay [1] and in assay [2] was under 100 nM in each case.
Consider `Cn1cc2cc(-c3c(-c4ccc(C#N)c(F)c4)cc(C(=O)N4CCC[C@@H](N)C4)n3C)ccc2n1` [Example 29, 4-{5-[((3R)-3-aminopiperidyl)carbonyl]-1-methyl-2-(2-methyl(2H-indazol-5-yl))pyrrol-3-yl}-2-fluorobenzenecarbonitrile], for which the IC50 in assay [1] and in assay [2] was under 100 nM each time.
Turning to `Cn1cc2cc(-c3c(-c4ccc(C#N)c(F)c4)cc(C(=O)N[C@@H]4CCNC4)n3C)ccc2n1` [Example 30, N-((3R)pyrrolidin-3-yl)[4-(4-cyano-3-fluorophenyl)-1-methyl-5-(2-methyl(2H-indazol-5-yl))pyrrol-2-yl]carboxamide], the IC50 in assay [1] and in assay [2] was under 100 nM throughout.
For the compound `CN(CCN)C(=O)c1cc(-c2ccc(C#N)c(F)c2)c(-c2ccc3nn(C)cc3c2)n1C` [Example 31, N-(2-aminoethyl)[4-(4-cyano-3-fluorophenyl)-1-methyl-5-(2-methyl(2H-indazol-5-yl))pyrrol-2-yl]-N-methylcarboxamide], the IC50 in assay [1] and in assay [2] was under 100 nM each time.
As for `CNCCNC(=O)c1cc(-c2ccc(C#N)c(F)c2)c(-c2ccc3nn(C)cc3c2)n1C` [Example 32, [4-(4-cyano-3-fluorophenyl)-1-methyl-5-(2-methyl(2H-indazol-5-yl))pyrrol-2-yl]-N-[2-(methylamino)ethyl]carboxamide], the IC50 in assay [1] and in assay [2] was under 100 nM in each case.
Turning to `Cn1cc2cc(-c3c(-c4ccc(C#N)c(F)c4)cc(C(=O)N4CCC[C@@H](N)C4)n3CCCO)ccc2n1` [Example 34, (R)-4-(5-(3-aminopiperidine-1-carbonyl)-1-(3-hydroxypropyl)-2-(2-methyl-2H-indazol-5-yl)-1H-pyrrol-3-yl)-2-fluorobenzonitrile], the IC50 in assay [1] and in assay [2] was under 100 nM in each case.
Consider `Cn1cc2cc(-c3c(-c4ccc(C#N)c(F)c4)cc(C(=O)N4CCC[C@@H](N)C4)n3CCO)ccc2n1` [Example 35, (R)-4-(5-(3-aminopiperidine-1-carbonyl)-1-(2-hydroxyethyl)-2-(2-methyl-2H-indazol-5-yl)-1H-pyrrol-3-yl)-2-fluorobenzonitrile], for which the IC50 in assay [1] and in assay [2] was under 100 nM throughout.
`COCCn1c(C(=O)N2CCC[C@@H](N)C2)cc(-c2ccc(C#N)c(F)c2)c1-c1ccc2nn(C)cc2c1` [Example 36, (R)-4-(5-(3-aminopiperidine-1-carbonyl)-1-(2-methoxyethyl)-2-(2-methyl-2H-indazol-5-yl)-1H-pyrrol-3-yl)-2-fluorobenzonitrile]: the IC50 in assay [1] and in assay [2] was under 100 nM in each case.
In the case of `Cn1cc2cc(-c3c(-c4ccc(C#N)c(F)c4)cc(C(=O)N4CCC[C@@H](N)C4)n3C[C@@H](O)CO)ccc2n1` [Example 38, 4-(5-((R)-3-aminopiperidine-1-carbonyl)-1-((R)-2,3-dihydroxypropyl)-2-(2-methyl-2H-indazol-5-yl)-1H-pyrrol-3-yl)-2-fluorobenzonitrile], the IC50 in assay [1] and in assay [2] was under 100 nM each time.
`Cn1cc2cc(-c3c(-c4ccc(C#N)c(F)c4)cc(C(=O)N4CCC[C@@H](N)C4)n3C[C@H](O)CO)ccc2n1` [Example 39, 4-(5-((R)-3-aminopiperidine-1-carbonyl)-1-((S)-2,3-dihydroxypropyl)-2-(2-methyl-2H-indazol-5-yl)-1H-pyrrol-3-yl)-2-fluorobenzonitrile]: the IC50 in assay [1] and in assay [2] was under 100 nM throughout.
Consider `Cn1cc2cc(-c3c(-c4ccc(C#N)c(F)c4)cc(C(=O)NC[C@@H]4CCNC4)n3C)ccc2n1` [Example 40, N-[((3R)pyrrolidin-3-yl)methyl][4-(4-cyano-3-fluorophenyl)-1-methyl-5-(2-methyl(2H-indazol-5-yl))pyrrol-2-yl]carboxamide], for which the IC50 in assay [1] and in assay [2] was under 100 nM in each case.
For `COc1ccc(-c2c(-c3ccc(C#N)c(F)c3)cc(C(=O)N3CCC[C@@H](N)C3)n2CCCC(N)=O)cc1` [Example 42, 4-{5-[((3R)-3-aminopiperidyl)carbonyl]-3-(4-cyano-3-fluorophenyl)-2-(4-methoxyphenyl)pyrrolyl} butanamide], the IC50 in assay [1] and in assay [2] was under 100 nM in each case.
Consider `Cc1c(C(=O)N2CCC(N)CC2)nc(-c2ccc(C#N)c(F)c2)n1-c1ccc2nn(C)cc2c1` [Example 43, 4-[4-(4-Aminopiperidine-1-carbonyl)-5-methyl-1-(2-methylindazol-5-yl)imidazol-2-yl]-2-fluorobenzonitrile], for which the figures for the IC50 in assay [1] and in assay [2] were 100 to 1000 nM and under 100 nM, respectively.
For the compound `Cc1c(C(=O)N(C)CCN)nc(-c2ccc(C#N)c(F)c2)n1-c1ccc2nn(C)cc2c1` [Example 44, N-(2-Aminoethyl)-2-(4-cyano-3-fluorophenyl)-N,5-dimethyl-1-(2-methylindazol-5-yl)imidazole-4-carboxamide], the IC50 in assay [1] and in assay [2] was under 100 nM in each case.
Take `Cc1c(C(=O)NC2CCCNC2)nc(-c2ccc(C#N)c(F)c2)n1-c1ccc2nn(C)cc2c1` (stereo not shown) [Example 45, 2-(4-Cyano-3-fluorophenyl)-5-methyl-1-(2-methylindazol-5-yl)-N-piperidin-3-ylimidazole-4-carboxamide]: the IC50 in assay [1] and in assay [2] was under 100 nM throughout.
Regarding `Cc1c(C(=O)NC2CCNC2)nc(-c2ccc(C#N)c(F)c2)n1-c1ccc2nn(C)cc2c1` (stereo not shown) [Example 46, 2-(4-Cyano-3-fluorophenyl)-5-methyl-1-(2-methylindazol-5-yl)-N-pyrrolidin-3-ylimidazole-4-carboxamide], the IC50 in assay [1] and in assay [2] was under 100 nM in each case.
Regarding `Cc1c(C(=O)N2CCC[C@@H](N)C2)nc(-c2ccc(C#N)c(F)c2)n1-c1cc2cn(C)nc2cc1F` [Example 47, 4-[4-[(3R)-3-Aminopiperidine-1-carbonyl]-1-(6-fluoro-2-methylindazol-5-yl)-5-methylimidazol-2-yl]-2-fluorobenzonitrile], the IC50 in assay [1] and in assay [2] was under 100 nM in each case.
Take `Cc1c(C(=O)N2CC[C@H](N)C2)nc(-c2ccc(C#N)c(F)c2)n1-c1cc(F)c2nn(C)cc2c1` [Example 50, 4-[4-[(3S)-3-Aminopyrrolidine-1-carbonyl]-1-(7-fluoro-2-methylindazol-5-yl)-5-methylimidazol-2-yl]-2-fluorobenzonitrile]: the IC50 in assay [1] and in assay [2] was under 100 nM each time.
